From the supplement of paper PMC4628005

How the values were obtained:
Conditions in all cases: drug exposure time: 96 h
[1] = compound: C=CCNC1=C2C[C@@H](C)C[C@H](OC)[C@H](O)[C@@H](C)/C=C(\C)[C@H](OC(N)=O)[C@@H](OC)/C=C\C=C(/C)C(=O)NC(=CC1=O)C2=O [17-AAG]
Procedure: (§1)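 Same SRB 96 h IC50 screen on breast cancer cell lines (RPMI 1640 + 10% FBS, collagen I-coated 96-well plates, triplicates, 12 dilutions), for drugs with a different dose range: Bortezomib up to 2e-5 M; Sirolimus and 17-AAG up to 2e-6 M. Sirolimus values at the 2e-6 M top dose are censored.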

[2] = compound: CC(C)C[C@H](NC(=O)[C@H](Cc1ccccc1)NC(=O)c1cnccn1)B(O)O [Bortezomib]
Procedure: as §1

[3] = compound: CO[C@H]1C[C@@H]2CC[C@@H](C)[C@@](O)(O2)C(=O)C(=O)N2CCCC[C@H]2C(=O)O[C@H]([C@H](C)C[C@@H]2CC[C@@H](O)[C@H](OC)C2)CC(=O)[C@H](C)/C=C(\C)[C@@H](O)[C@@H](OC)C(=O)[C@H](C)C[C@H](C)/C=C/C=C/C=C/1C [Sirolimus]
Procedure: as §1

[4] = compound: O=C(/C=C/c1cccc(S(=O)(=O)Nc2ccccc2)c1)NO [Belinostat]
Procedure: (§2)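 Breast cancer cell lines were grown in RPMI 1640 with 10% FBS on collagen I-coated 96-well plates and treated for 96 h (from 24 h after seeding) with 12 dilutions per drug, in triplicate. Growth was read by sulforhodamine B total-protein staining (absorbance 570 nm) relative to diluent control, and IC50 was calculated. The top dose was 1e-5 M for most drugs; Bortezomib went to 2e-5 M and Sirolimus and 17-AAG to 2e-6 M[…].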

[5] = compound: Nc1ncn([C@H]2C[C@H](O)[C@@H](CO)O2)c(=O)n1 [Decitabine]
Procedure: as §2

[6] = compound: CNC(=O)c1cc(Oc2ccc(NC(=O)Nc3ccc(Cl)c(C(F)(F)F)c3)cc2)ccn1 [Sorafenib]
Procedure: as §2

[7] = compound: CC(=O)O[C@H]1C(=O)[C@@]2(C)[C@H]([C@H](OC(=O)c3ccccc3)[C@]3(O)C[C@H](OC(=O)[C@H](O)[C@@H](NC(=O)c4ccccc4)c4ccccc4)C(C)=C1C3(C)C)[C@]1(OC(C)=O)CO[C@@H]1C[C@@H]2O [Paclitaxel]
Procedure: as §2

[8] = compound: CC(=O)O[C@@]12CO[C@@H]1C[C@H](O)[C@@]1(C)C(=O)[C@H](O)C3=C(C)[C@@H](OC(=O)[C@H](O)[C@@H](NC(=O)OC(C)(C)C)c4ccccc4)C[C@@](O)([C@@H](OC(=O)c4ccccc4)[C@H]21)C3(C)C [Docetaxel]
Procedure: as §2

[9] = compound: CN(Cc1cnc2nc(N)nc(N)c2n1)c1ccc(C(=O)N[C@@H](CCC(=O)O)C(=O)O)cc1 [Methotrexate]
Procedure: as §2

[10] = compound: c1ccc2c(CCNc3ccc(Nc4ccncc4)cc3)c[nH]c2c1 [Serdemetan]
Procedure: as §2

[11] = compound: CC(C)(C)C[C@H]1N[C@@H](C(=O)NCC[C@H](O)CO)[C@H](c2cccc(Cl)c2)[C@@]12C(=O)Nc1cc(Cl)c(F)cc12 [MI-219]
Procedure: as §2

[12] = compound: Cn1cc(CNCC2CCN(c3ncc(C(=O)NO)cn3)CC2)c2ccccc21 [Quisinostat]
Procedure: as §2

[13] = compound: COc1ccc(C2=N[C@@H](c3ccc(Cl)cc3)[C@@H](c3ccc(Cl)cc3)N2C(=O)N2CCNC(=O)C2)c(OC(C)C)c1 [Nutlin-3]
Procedure: as §2

[14] = compound: COc1cccc2c1C(=O)c1c(O)c3c(c(O)c1C2=O)C[C@@](O)(C(=O)CO)C[C@@H]3O[C@H]1C[C@H](N)[C@H](O)[C@H](C)O1 [Doxorubicin]
Procedure: as §2

[15] = compound: Nc1ncn([C@@H]2O[C@H](CO)[C@@H](O)[C@H]2O)c(=O)n1 [Azacitidine]
Procedure: as §2

[16] = compound: O=C1c2c(O)ccc(O)c2C(=O)c2c(NCCNCCO)ccc(NCCNCCO)c21 [Mitoxantrone]
Procedure: as §2

[17] = compound: CC/C(=C(\c1ccccc1)c1ccc(OCCN(C)C)cc1)c1ccccc1 [Tamoxifen]
Procedure: as §2

[18] = compound: Cn1cncc1[C@@](N)(c1ccc(Cl)cc1)c1ccc2c(c1)c(-c1cccc(Cl)c1)cc(=O)n2C [Tipifarnib]
Procedure: as §2

[19] = compound: CS(=O)(=O)CCNCc1ccc(-c2ccc3ncnc(Nc4ccc(OCc5cccc(F)c5)c(Cl)c4)c3c2)o1 [Lapatinib]
Procedure: as §2

[20] = compound: O=C(CCCCCCC(=O)Nc1ccccc1)NO [Vorinostat]
Procedure: as §2

[21] = compound: C#Cc1cccc(Nc2ncnc3cc(OCCOC)c(OCCOC)cc23)c1 [Erlotinib]
Procedure: as §2

[22] = compound: O=C1NC(=O)[C@@H](c2cn3c4c(cccc24)CCC3)[C@@H]1c1c[nH]c2ccccc12 [ARQ197]
Procedure: as §2

[23] = compound: CCN(CC)CCNC(=O)c1c(C)[nH]c(/C=C2\C(=O)Nc3ccc(F)cc32)c1C [Sunitinib]
Procedure: as §2

[24] = compound: Cc1nc(Nc2ncc(C(=O)Nc3c(C)cccc3Cl)s2)cc(N2CCN(CCO)CC2)n1 [Dasatinib]
Procedure: as §2

[25] = compound: Cc1cc2c(F)c(Oc3ncnn4cc(OC[C@@H](C)O)c(C)c34)ccc2[nH]1 [Brivanib]
Procedure: as §2

[26] = compound: COc1cc2ncnc(Nc3ccc(F)c(Cl)c3)c2cc1OCCCN1CCOCC1 [Gefitinib]
Procedure: as §2

[27] = compound: O=c1[nH]cc(F)c(=O)[nH]1 [5-Fluorouracil]
Procedure: as §2

[28] = compound: N.N.[Cl][Pt][Cl] [Cisplatin]
Procedure: as §2

[29] = compound: Cc1[nH]c2ccccc2c1CCNCc1ccc(/C=C/C(=O)NO)cc1 [Panobinostat]
Procedure: as §2

[30] = compound: COc1cc2/c(=N/c3ccc(Br)cc3F)nc[nH]c2cc1OCC1CCN(C)CC1 [Vandetanib]
Procedure: as §2

Test System	IC50 (SRB growth assay) [1] [nM]	IC50 (SRB growth assay) [2] [nM]	IC50 (SRB growth assay) [3] [pM]	IC50 (SRB growth assay) [4] [nM]	IC50 (SRB growth assay) [5] [µM]	IC50 (SRB growth assay) [6] [µM]	IC50 (SRB growth assay) [7] [nM]	IC50 (SRB growth assay) [8] [pM]	IC50 (SRB growth assay) [9] [nM]	IC50 (SRB growth assay) [10] [µM]	IC50 (SRB growth assay) [11] [µM]	IC50 (SRB growth assay) [12] [nM]	IC50 (SRB growth assay) [13] [µM]	IC50 (SRB growth assay) [14] [nM]	IC50 (SRB growth assay) [15] [µM]	IC50 (SRB growth assay) [16] [nM]	IC50 (SRB growth assay) [17] [µM]	IC50 (SRB growth assay) [18] [µM]	IC50 (SRB growth assay) [19] [µM]	IC50 (SRB growth assay) [20] [nM]	IC50 (SRB growth assay) [21] [µM]	IC50 (SRB growth assay) [22] [nM]	IC50 (SRB growth assay) [23] [µM]	IC50 (SRB growth assay) [24] [nM]	IC50 (SRB growth assay) [25] [µM]	IC50 (SRB growth assay) [26] [µM]	IC50 (SRB growth assay) [27] [µM]	IC50 (SRB growth assay) [28] [µM]	IC50 (SRB growth assay) [29] [nM]	IC50 (SRB growth assay) [30] [µM]
BT 20	535	13.9	232	197	> 10	3.78	1.79	541	> 10000	2.27	> 10	8.27	> 10	10.5	1.14	10.9	0.0494	0.0319	5.8	586	6.14	511	> 10	> 10000	> 10	> 10	2.83	> 10	7.93	9.41
BT 474	19.5	5.49	119	191	> 10	3.5	2.18	891	> 10000	2.28	> 10	1.85	> 10		> 10	23.3	4.13		> 10	376	1.97		5.78	611	> 10	0.731	> 10		3.31	2.77
BT 549	58.4	3.97	597	436	0.256	6.04	1.44	598	22.4	1.26	> 10	12.4	> 10		> 10	1.88	7.41		0.256	764	6.1		3.29	565	6.3	> 10	3.72		11.1	3.41
CAMA 1	22.7	6.12	106	339	1.04	5.24	1.95	662	8300	1.52	> 10	2.87	> 10	21.8	5.56	6.16	7.98	3.04	4.2	1020	> 10	424	5.68	> 10000	> 10	> 10	1.56	> 10	12.6	> 10
HCC 1937	26.7	5.14	5980	572	1.93	6.23	4.02	1080	65.5	1.05	> 10	43.9	> 10		> 10	76.6	5.72		1.93	1760	> 10		6	4730	> 10	> 10	5.28		42.1	4.06
MDA-MB 231	683	4.43	4750	410	0.0657	4.27	1.49	535	2.1	0.474	> 10	16.1	> 10		> 10	2.65	9.79		0.0657	1320	> 10		2.52	67.6	6.48	> 10	2.58		15.5	4.8
MDA-MB-175 VII	15	8	1270	493	> 10	6.47	7.47	6870	595	4.89	1.36	14.8	3.74		> 10	12.6	7.37		> 10	898	> 10		> 10	513	> 10	> 10	4.18		15.2	2.45
SKBR 7	74.1	24.6	886	470	2.51	2.4	1.07	338	11.1	0.798	3.2	7.17	7.53		> 10	3.02	8.32		2.51	918	> 10		5.35	> 10000	> 10	> 10	1.58		15.9	7.76
SUM 149 PT	17.7	5.35	10700	171	0.081	5.59	1.31	226	10.6	0.608	> 10	6.79	> 10		> 10	1	5.21		0.081	515	0.766		3.43	70.6	> 10	2.86	7.76		8.96	0.877
SUM 159 PT	4.73	3.27	288	213	0.0467	3.73	2.95	710	2.36	0.547	> 10	8.78	> 10		> 10	1.24	6.36		0.0467	475	5.26		1.96	4060	> 10	> 10	1.68		8.19	5.26
SUM 185 PE	8.53	8.04	74.7	352	> 10	2.53	4.07	2170	> 10000	1.14	> 10	5.45	> 10		> 10	7.18	5.38		> 10	891	9.48		1.04	> 10000	4.53	> 10	> 10		8.38	2.28
SUM 190 PT	79.5	6.51	548	4610	> 10	2.06	1.91	883	> 10000	0.871	> 10	72.4	> 10		> 10	20.8	8.04		> 10	4730	5.25		3.87	223	> 10	> 10	> 10		78	4.54
SUM 229 PE	19.8	5.42	201	1000	0.0272	5.64	1.46	539	25.7	0.292	> 10	10.6	> 10		> 10	6.3	4.17		0.0272	1820	7.63		3.32	387	> 10	7.56	2.96		25.1	1.87
SUM 1315 MO2	55.1	6.55	917	703		5.57	3.29	1540	138	1.19	> 10	29.6	> 10	17.5	3.6	2.7	> 10		6.72	1190	> 10		4.28	53.7	7.2	> 10	> 10	> 10	31.7	2.59
UACC 893	18.2	3.92	72	134	> 10	4.46	1.95	701	164	2.87	> 10	4.25	> 10		> 10	4.1	5.5		> 10	487	1.49		2.3	6910	> 10	1.71	8.2		5.26	4.36
